{"source": "patent US8710246B2", "about": "“Substituted thiophene pentamers” (Biochromix Newco AB, priority 2008, dated 2014)", "key": {"hAPPSL transgenic mice": {"test_system": "hAPPSL transgenic mice", "assay": "14 days treatment, general observations, tolerance to compound (toxicity)", "format": "in vivo", "settings": "for animals that died premature: ip 14 days", "method": "Vehicle: Phosphate Buffered Saline (PBS; 6.7 mM PO4, 155 mM NaCl, pH=7.3-7.5) (BioWhittaker PBS from Lonza).\nT:I: p-FTAA, Mw=617 g/mol, diluted in vehicle from stock solution in deionized water (10 mg/ml).\nTg hAPPSL: Transgenic hAPPSL mice over-expressing hAPP(751) under the control of the murine Thy-1 promoter with a C57BL/6xDBA background.\n(§1) Starting at 4 months of age, female hAPPSL mice were treated with vehicle only or p-FTAA in 3 dosages for 14 days. 40 hAPP Tg mice plus 4 reserves allocated to 4 different treatment groups were treated with either vehicle only (control) or with p-FTAA in dosages of 0.1 mg/kg/day, 1 mg/kg/day, or 10 mg/kg/day. Vehicle and T.I.s were administered twice daily intra peritoneal (ip) for 14 days.\nIn total 44 animals allocated to 4 treatment groups were included in the study. 4 animals died premature due to unknown reason: 1 animal each of the 1 mg/kg and 10 mg/kg T.I. groups and 2 animals from the control group."}, "amyloid plaques": {"test_system": "amyloid plaques", "assay": "30 days treatment, plaque load by 6E10 IHC and ThioflavinS staining", "format": "in vivo, mice", "settings": "for hippocampal plaque load compared to vehicle: t-test", "method": "Starting at 8 months of age, female hAPPSL mice were treated with vehicle only or p-FTAA in 3 dosages for 30 days. The Test Item (T.I.) p-FTAA was administered in 3 dosages in Vehicle. 48 hAPP Tg mice plus 4 reserves allocated to 4 different treatment groups were treated with either vehicle only (control) or with p-FTAA in dosages of 0.1 mg/kg/day, 1 mg/kg/day, or 10 mg/kg/day. As an additional control, 12 nTg littermates of the hAPPSL mice (plus 1 reserve) were treated with vehicle only. Vehicle and T.I.s were administered twice daily intra peritoneal (i.p.) for 30 days.\nFollowing blood sampling, mice were transcardially perfused with physiological (0.9%) saline. The brains were removed from the skull and the cerebellum was cut off, immediately frozen on dry ice and stored at −80° C. The remaining brain was hemisected and the left hemisphere was weighed, immediately frozen on dry ice and stored at −80° C. until A13 analysis. The right hemisphere was fixed with paraformaldehyde as described in section 4.3.1.\nThe right hemispheres of all Tg mice were fixed by immersion in freshly prepared 4% paraformaldehyde/PBS (pH 7.4) for one hour at room temperature. Thereafter brains were transferred to a 15% sucrose PBS solution for 24 hours to ensure cryoprotection. On the next day, brains were frozen in isopentane and stored at −80° C. until used for histological analysis.\nFrom 6 animals per Tg group, 15 cryo-sections per layer (altogether 5 layers), each 10 μm thick (Leica CM 3050S) were sagittally cut. Brain levels were chosen according to the morphology atlas “The Mouse Brain” from Paxinos and Franklin (2nd edition). The cutting of the five levels started with a random slice corresponding to FIG. 105 (total appearance of the dentate gyrus), then sampling was continued uniformly and systematically, always retaining 15 slices per level in series and discarding 100 μm in between the levels.\nPlaque load was quantified by staining with 6E10 IHC directed against AA1-17 of the human amyloid peptide and ThioflavinS staining against beta-sheet structures in a double incubation. Tissues of all investigated animals were handled uniformly.\nDescriptive statistical analysis was performed on all evaluated parameters. Data were represented as mean±standard error of mean (SEM). Outliers were detected by Grubbs' test and were excluded from statistical analyses.\nValues of the five single measurements (one from each cut level) per animal were integrated to one value per animal (individual mean). Group means were calculated with these integrated values. After Kolmogorov Smirnov normality distribution tests differences were calculated by a parametric ANOVA followed by a Newman Keuls multiple comparison post-hoc test or by a non-parametric Kruskal Wallis ANOVA followed by a Dunn's Multiple comparison test, if Gaussian distribution was missing."}, "Aβ peptide 1-42": {"target": "T1, Aβ peptide 1-42 (Homo sapiens, UniProt P05067)", "T1 construct": "Aβ peptide 1-42 was dissolved in hexafluoroisopropanol", "T1 sequence (P05067 672-713 limits assumed)": "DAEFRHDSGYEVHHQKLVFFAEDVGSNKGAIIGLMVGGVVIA", "assay": "In vitro fibrillation of Aβ peptide 1-42 followed by TEM", "format": "biochemical", "settings": "for fibrillation morphology by TEM: 100 μM compound, 20 μM Aβ 1-42, 37° C.", "method": "Aβ peptide 1-42 was dissolved in hexafluoroisopropanol to a concentration of 1 mg/mL and further diluted to 20 μM in Tris-HCl 5 mM, 75 mM NaCl. The inventive compounds F and G were added in concentrations from 10 to 100 μM and the samples, including references without the inventive compounds, were incubated at 37° C. to initiate fibrillation. After Oh, 20 h and 66 h aliquots were withdrawn, deposited on formvar-carbon coated TEM grids and negatively stained using uranylacetate. A Phillips CM200 run at 200 kV was used to study the progress of fibrillation in the different samples. […] (at Oh). […] These aggregates were covering most of the TEM grid and no smaller fibril or oligomer like structures could be seen. After 66 h of incubation no major change in morphology compared to the 20 h samples could be seen, sheets with separate visible fibrils were found at high density on the grid, of a typical morphology illustrated in FIG. 3."}, "[1]": {"assay": "14 days treatment, biodistribution by HPLC-MS/MS", "format": "in vivo, mice", "method": "as §1\nThe biodistribution of p-FTAA in the mice was assessed by determining the parent compound in the right brain hemisphere (without cerebellum), liver, kidney, and plasma of the treated animals. p-FTAA was determined in all the matrices by different bioanalytical methods involving HPLC-MS/MS. Each method was characterized in terms of specificity, linearity, accuracy and precision in order to give reliable results.\nTissue Sampling: After the last treatment, animals were sacrificed. Each treatment group was divided in 3 sampling points resulting in 3-4 animals per sampling point per group (time points below refer to the time point of CSF sampling):\n1) Immediately before last dosing on day 14 (predose)\n2) 0.5 hours after last dosing on day 14\n3) 3 hours after last dosing on day 14\nFrom each animal, CSF, blood, brains, liver, and kidney were collected. Therefore, mice were sedated by standard inhalation anesthesia (Isofluran, Baxter)"}}, "note": "“Also recorded” adds a separate entry of the source."}
{"smiles": "O=C(O)Cc1cc(-c2ccc(C(=O)O)s2)sc1-c1ccc(-c2sc(-c3ccc(C(=O)O)s3)cc2CC(=O)O)s1", "note": "[Compound F]", "values": [{"measurement": "animals that died premature", "setting": "hAPPSL transgenic mice; 1 mg/kg group", "value": 1, "unit": "animal"}, {"measurement": "animals that died premature", "setting": "hAPPSL transgenic mice; 10 mg/kg group", "value": 1, "unit": "animal"}, {"measurement": "attribution of premature deaths to the compound", "setting": "hAPPSL transgenic mice; 0.1, 1, 10 mg/kg/day ip twice daily for 14 days, 4 months old female hAPPSL mice", "value": "cannot be attributed to p-FTAA"}, {"measurement": "decrease in plaque area", "setting": "amyloid plaques; 1 mg/kg, hippocampus", "value": 40, "unit": "%"}, {"measurement": "hippocampal plaque load compared to vehicle", "setting": "amyloid plaques; 1 mg/kg/day, ThioflavinS, listed as p-FTAA", "value": "Statistical significance; also recorded: significantly lower plaque load"}, {"measurement": "hippocampal plaque load compared to vehicle", "setting": "amyloid plaques; 10 mg/kg/day, ThioflavinS, listed as p-FTAA", "value": "Statistical significance; also recorded: significantly lower plaque load"}, {"measurement": "plaque load in the cortex", "setting": "amyloid plaques; 0.1, 1, 10 mg/kg/day, ThioflavinS, listed as p-FTAA", "value": "without significant changes; also recorded: comparable among groups"}, {"measurement": "reduction of diffuse 6E10 IR surrounding the plaque-cores, dose of strongest effect", "setting": "amyloid plaques; 6E10 IHC", "value": "strongest for the 10 mg/kg p-FTAA treatment"}, {"measurement": "effect on beta-sheet cores, dose of strongest effect", "setting": "amyloid plaques; ThioflavinS", "value": "strongest effect on beta-sheet cores was observed for the 1 mg/kg p-FTAA treatment"}, {"measurement": "plaque load, overall effect of treatment", "setting": "amyloid plaques; mainly hippocampus, 6E10 IHC and ThioflavinS", "value": "reduction of plaque load"}, {"measurement": "fibrillation morphology by TEM", "setting": "Aβ peptide 1-42; 20 h", "value": "no dense aggregates resembling those in the reference sample"}, {"measurement": "fibrillation morphology by TEM", "setting": "Aβ peptide 1-42; 66 h", "value": "no separate fibrils could be found; also recorded: dense aggregates where no fibrils can be seen"}, {"measurement": "effect on the fibrillation of Aβ peptide 1-42", "setting": "Aβ peptide 1-42; overall conclusion, 20 h and 66 h", "value": "major effect"}, {"measurement": "systemic exposure", "setting": "[1]; 0.1, 1, 10 mg/kg/day ip for 14 days, plasma", "value": "exposed systemically to p-FTAA at all dose levels"}, {"measurement": "crossing of the blood-brain barrier (brain levels)", "setting": "[1]; after ip administration, 14 days", "value": "crossed the blood-brain barrier"}, {"measurement": "elimination route suggested by tissue levels", "setting": "[1]; ip, 14 days", "value": "urinary excretion is the main elimination route"}, {"measurement": "exposure in the liver and in the kidney", "setting": "[1]; ip, 14 days", "value": "Significant exposure"}, {"measurement": "levels in kidney compared to liver", "setting": "[1]; ip, 14 days", "value": "higher in the kidney compared to the liver"}]}
